“And” between values parts separate entries of the source, which are not always exact repeats. Equal entries are not always repeated. Where two headings read alike, the source gives them in different places.
Tests used:
[1] = cited from earlier work
[2] = Low-temperature stopped-flow kinetics of binding of α-KG to 17; settings: 17 + α-KG
[3] = Low-temperature stopped-flow kinetics of binding of p-CH3-BF to 17; settings: 17 + p-CH3-BF
[4] = Cyclic voltammetry, redox potentials; assay type: physicochemical; settings: for Keq / ΔG°: calculated from redox potentials for the one-electron transfer between iron and dioxygen
Description: All reagents and solvents used were purchased from commercial sources and used as received unless otherwise noted. Prior to use, methanol (Pharmco-Aaper) was distilled over magnesium metal, dimethyl sulfoxide (Fisher Scientific) was distilled over calcium hydride, triethylamine was distilled over sodium metal and unstabilized dichloromethane (Fisher Scientific) was distilled over calcium hydride. Ferrocene was purified by sublimation for use as a reference for electrochemical analyses. All manipulations involving ferrous complexes were carried out in an inert atmosphere glovebox (M. Braun, Stratham, N.H.) with distilled and thoroughly degassed solvents. UV/Vis spectra were collected using a Hewlett Packard Spectrometer (8453). IR spectra were collected using a Thermo Nicolet AVATAR 330-FT-IR. Cyclic voltammetry experiments were performed using a Princeton Applied Research model 273 potentiostat with a glassy carbon working electrode, a silver wire reference electrode and a platinum wire counter electrode. Electron Paramagnetic Resonance (EPR) spectra were collected on a Bruker ESP-300E spectrometer operating at 9.460 GHz. NMR spectra were recorded at 25° C. using a Varian spectrometer operating at 400 MHz with all chemical shifts referenced to SiMe4. Iron concentrations were determined using a Varian AA240Z Atomic Absorption Spectrometer.
Cyclic voltammetry was performed inside an inert atmosphere (N2) box, with degassed DMSO as the solvent and tetra-N-butylammonium hexafluorophosphate as the supporting electrolyte (0.2M). The ferrocenium/ferrocene couple was used as an internal reference; reduction potential values were corrected by assigning the ferrocenium/ferrocene couple to 0.64 V versus NHE (Zanello, P. Inorganic Electrochemistry; The Royal Society of Chemistry: Cambridge, 2003). Chloride titration experiments were performed by collecting CV data after the addition of one and two 50 μL aliquots of 204 mM [NEt4][Cl] to 3.0 mL of 3.4 mM [Fe^II(N2O1py)(Cl)2]^− (concentration determined using flame atomic absorption spectroscopy) and correcting the potential with reference to the ferrocenium/ferrocene couple.
It should be noted that these redox potentials were determined in the absence of excess halide, and further CV studies will be performed in the presence of excess halide for all derivatives of the N2O1py system.

[5] = Reactivity with α-KG, O2 and cyclooctane (GC-MS); settings: Cyclooctane
Protocol: (§1) Reactivity Studies. […] (10-20 mM).

[6] = Catalytic oxidation of methanol to formaldehyde with α-KG and O2 (Nash assay); settings: for Total TON / TON: Methanol; for TON: product Formaldehyde
[7] = Reactivity with α-KG, O2 and cyclohexene (GC); settings: Cyclohexene
[8] = Room temperature O2 reactivity of ferrous complexes followed by UV/vis; settings: for time for formation of the diferric oxo-bridged product on reaction with O2: methanol
Protocol: The solution was transferred to an anaerobic UV/vis cell and sealed. An initial spectrum was obtained of the ferrous complex, and then the solution was exposed to the air. Spectra were recorded every minute for the first two minutes and then every 5-30 minutes after that for seven hours. The absorbance was monitored at 350 nm to follow formation of the oxidized complex.
This solution was then transferred to an anaerobic UV/vis cell and sealed. An initial spectrum was obtained of the ferrous complex, and then the solution was exposed to the air. Spectra were collected every minute for the first 30 minutes and then every 5-20 minutes after that for 2 hours. The absorbance was monitored at 315 nm to follow formation of the oxidized complex.

[9] = Reactivity with α-KG, O2 and 9,10-dihydroanthracene (GC-FID); settings: O2, [Fe] 10.1 μM
Protocol: as §1
(17) with α-KG, 02, and 9,10-dihydroanthracene.

[10] = Reactivity with α-KG, O2 and 2,4-di-tert-butyl phenol (GC-FID); settings: O2, [Fe] 9.6 μM
Protocol: as §1

[11] = vs. NHE, quasi-reversible; Thesis of Tarves 2012; cited from earlier work
[12] = Low-temperature stopped-flow kinetics of adduct complexes with dioxygen; settings: −85° C.
Protocol: Stopped-flow Spectroscopy and Data analysis.
Kinetic studies of [Fe^II(N2O1)(α-KG)(CH3OH)]^− and [Fe^II(N2O1)(p-X-BF)(CH3OH)]^− adduct complexes with dioxygen. Low-temperature stopped flow studies of this reaction were performed.
Order dependence analysis.
The kinetic model was built by starting from simple two- and three-exponential processes.
Stoichiometry of the equations for the proposed model in FIG. 29: […]

Solubility = assay type: physicochemical
[13] = DMSO, glassy carbon working electrode, absence of excess halide
[14] = [24] 1.0 mM, O2 5 mM, benzoate 3.1 mM
[15] = complex 0.94-1.1 mM, O2 5 mM, methanol

CN(C)CCN(C)CC(=O)[O-].[Cl-].[Cl-].[Fe+2].[Na+] [compound 17, [Fe^II(N2O1)Cl2][Na]]
solubility ([1]; DMF and DMSO): only slightly soluble | solubility ([1]; other common polar and nonpolar aprotic solvents, including CH3CN, CH2Cl2, THF, Et2O, toluene and ethyl acetate): insoluble | solubility ([1]; protic solvents): soluble | k15 ([2]; methanol, −85° C.): 9.6 M⁻¹ s⁻¹ and 10 ± 0.2 M⁻¹ s⁻¹ | k16 ([2]; methanol, −85° C.): 1.7 s⁻¹ and 1.7 ± 0.5 s⁻¹ | k17 ([2]; methanol, −85° C.): 0.53 s⁻¹ and 0.5 ± 0.1 s⁻¹ | ΔH^‡ of k15 ([2]; −85 to −70° C.): 8.6 ± 0.48 kcal/mol | ΔH^‡ of k16 ([2]; −85 to −70° C.): 12 ± 1.2 kcal/mol | ΔH^‡ of k17 ([2]; −85 to −70° C.): 11.2 ± 1.4 kcal/mol | ΔS^‡ of k16 ([2]; −85 to −70° C.): 31.3±23 J mol^−1 K^−1 and 31 ± 23 J mol^−1 K^−1 | ΔS^‡ of k17 ([2]; −85 to −70° C.): 3 ± 1 J mol^−1 K^−1 | k15 ([3]; methanol, −85° C.): 45.3 M⁻¹ s⁻¹ and 45 ± 5 M⁻¹ s⁻¹ | k16 ([3]; methanol, −85° C.): 12 ± 1 s⁻¹ | k17 ([3]; methanol, −85° C.): 1.2 ± 0.1 s⁻¹ | ΔH^‡ of k15 ([3]; −85 to −70° C.): 8.37 ± 0.48 kcal/mol | ΔH^‡ of k16 ([3]; −85 to −70° C.): 10 ± 2.2 kcal/mol | ΔH^‡ of k17 ([3]; −85 to −70° C.): 9.08 ± 0.24 kcal/mol | ΔS^‡ of k16 ([3]; −85 to −70° C.): 1.5 ± 0.9 J mol^−1 K^−1 | ΔS^‡ of k17 ([3]; −85 to −70° C.): 36.9±15 J mol^−1 K^−1 and 37 ± 15 J mol^−1 K^−1 | E1/2 [4, 13]: 159 mV | Keq [4]: 1.1 × 10^−8 | ΔG° [4]: 45 kJ | E1/2 ([4]; no added halide, in mV): +159 | Total TON ([5]; Air, [Fe] 1.1 μM): 317 | TON ([5]; Air, [Fe] 1.1 μM, product Cyclooctanol): 189 | TON ([5]; Air, [Fe] 1.1 μM, product Cyclooctanone): 64 | Total TON ([5]; O2, [Fe] 1.1 μM): 305 | TON ([5]; O2, [Fe] 1.1 μM, product Cyclooctanol): 182 | TON ([5]; O2, [Fe] 1.1 μM, product Cyclooctanone): 62 | Total TON ([5]; O2, [Fe] 9.7 μM): 40 | TON ([5]; O2, [Fe] 9.7 μM, product Cyclooctanol): 24 | TON ([5]; O2, [Fe] 9.7 μM, product Cyclooctanone): 7.8 | Total TON ([6]; O2, [Fe] 1.0 μM): 285 | TON ([6]; O2, [Fe] 1.0 μM): 285 | Total TON ([6]; O2, [Fe] 6.2 μM): 54 | TON ([6]; O2, [Fe] 6.2 μM): 54 | Total TON ([6]; O2, [Fe] 8.0 μM): 36 | TON ([6]; O2, [Fe] 8.0 μM): 36 | Total TON ([6]; O2, [Fe] 12.5 μM): 22 | TON ([6]; O2, [Fe] 12.5 μM): 22 | Total TON ([6]; O2, [Fe] 100 μM): 3.5 | TON ([6]; O2, [Fe] 100 μM): 3.5 | Total TON ([6]; O2, [Fe] 200 μM): 2.1 | TON ([6]; O2, [Fe] 200 μM): 2.1 | Total TON ([6]; O2, [Fe] 300 μM): 1.3 | TON ([6]; O2, [Fe] 300 μM): 1.3 | Total TON ([6]; O2, [Fe] 500 μM): 0.82 | TON ([6]; O2, [Fe] 500 μM): 0.82 | Total TON ([6]; O2, [Fe] 2500 μM): 0.46 | TON ([6]; O2, [Fe] 2500 μM): 0.46 | Total TON ([6]; O2, [Fe] 5000 μM): 0.39 | TON ([6]; O2, [Fe] 5000 μM): 0.39 | Total TON ([7]; O2, [Fe] 9.6 μM): 520 | Total TON ([7]; O2, [Fe] 9.6 μM + TEMPO): 414 | TON ([7]; O2, [Fe] 9.6 μM + TEMPO (6 × 10^4 excess), product Cyclohexene oxide): 53 | TON ([7]; O2, [Fe] 9.6 μM + TEMPO, product 2-Cyclohexen-1-ol): 240 | TON ([7]; O2, [Fe] 9.6 μM + TEMPO, product 2-Cyclohexen-1-one): 60 | TON ([7]; O2, [Fe] 9.6 μM, product 2-Cyclohexen-1-ol): 249 | TON ([7]; O2, [Fe] 9.6 μM, product 2-Cyclohexen-1-one): 70 | TON ([7]; O2, [Fe] 9.6 μM, product Cyclohexene oxide): 132 | time for formation of the diferric oxo-bridged product on reaction with O2 [8]: ~6 h | Total TON [9]: 128 | TON ([9]; product Anthracene): 54 | TON ([9]; product Anthraquinone): 26 | TON ([9]; product Anthrone): 21 | Total TON [10]: 619 | TON ([10]; product 3,3′-5,5′-terta-t-butyl-2,2′-dihydroxybiphenyl): 619

CN(C)CCN(C)CC(=O)[O-].CO.O=C([O-])C(=O)c1ccccc1.[Fe+2] [compound 24, [Fe^II(N2O1)(p-H-BF)]]
E1/2 [11]: 60 mV | k′1 ([12]; [24] 0.47 mM, O2 5 mM): 8.5 ± 0.2 s⁻¹ | k′2 ([12]; [24] 0.47 mM, O2 5 mM): 170 ± 8 M⁻¹ s⁻¹ | k′2obs ([12]; [24] 0.47 mM, O2 5 mM): 0.9 ± 0.04 s⁻¹ | k′3 ([12]; [24] 0.47 mM, O2 5 mM): 21 ± 0.06 s⁻¹ | k′4 ([12]; [24] 0.47 mM, O2 5 mM): 0.2 ± 0.01 s⁻¹ | k′2obs ([12]; [24] 0.94 mM, O2 5 mM): 0.13 ± 0.02 s⁻¹ | k′1 [12, 14]: 0.04 ± 0.01 s⁻¹ | k′2 [12, 14]: 2900 ± 500 M⁻¹ s⁻¹ | k′3 [12, 14]: 0.25 ± 0.05 s⁻¹ | k′4obs [12, 14]: 1.1 ± 0.2 s⁻¹ | k′1 ([12]; [24] 1.34 mM, O2 2.5 mM): 7 ± 1.2 s⁻¹ | k′2obs ([12]; [24] 1.34 mM, O2 2.5 mM): 0.2 ± 0.1 s⁻¹ | k′3 ([12]; [24] 1.34 mM, O2 2.5 mM): 14 ± 6 s⁻¹ | k′4 ([12]; [24] 1.34 mM, O2 2.5 mM): 0.2 ± 0.03 s⁻¹ | k′1 ([12]; [24] 1.34 mM, O2 3.5 mM): 9 ± 1.1 s⁻¹ | k′2obs ([12]; [24] 1.34 mM, O2 3.5 mM): 0.5 ± 0.2 s⁻¹ | k′3 ([12]; [24] 1.34 mM, O2 3.5 mM): 16 ± 4 s⁻¹ | k′4 ([12]; [24] 1.34 mM, O2 3.5 mM): 0.3 ± 0.09 s⁻¹ | k′1 ([12]; [24] 1.34 mM, O2 5 mM): 6.1 ± 0.9 s⁻¹ and 8 ± 0.9 s⁻¹ | k′2 ([12]; [24] 1.34 mM, O2 5 mM): 150 ± 5 M⁻¹ s⁻¹ | k′3 ([12]; [24] 1.34 mM, O2 5 mM): 20 ± 1.1 s⁻¹ and 21 ± 5 s⁻¹ | k′1 [12, 15]: 7.8 ± 1.0 s⁻¹ | k′3 [12, 15]: 20 ± 0.9 s⁻¹ | k′4 (k′4obs) [12, 15]: 0.4 ± 0.03 s⁻¹ | TON predicted from the line of best fit in FIG. 2 for the α-KG adduct complex ([6]; iron complex 0.47 mM): 0.9 | TON predicted from the line of best fit in FIG. 2 for the α-KG adduct complex ([6]; iron complex 0.94 mM): 0.6 | TON predicted from the line of best fit in FIG. 2 for the α-KG adduct complex ([6]; iron complex 1.34 mM): 0.3 | rate of room temperature reactivity with O2 (time) [8]: ~200 min

CN(CC(=O)[O-])Cc1ccccn1.[Cl-].[Cl-].[Fe+2] [[Fe^II(N2O1py)(Cl)2]^−, [PSH][Fe^II(N2O1py)(Cl)2]]
redox potential [4]: 188 mV | E1/2 [4, 13]: 216 mV | Keq [4]: 1.7 × 10^−9 | ΔG° [4]: 50 kJ | ΔE ([4]; no added halide): 96 mV | E1/2 ([4]; no added halide, in mV): +216 | solubility properties compared with the first generation catalyst (Solubility): very similar solubility properties | time for formation of the diferric oxo-bridged product on reaction with O2 [8]: > 7 h

Source: patent US10428043B2, “Green oxidation catalytic system” (TRUSTEES OF BOSTON UNIVERSITY, priority 2014, dated 2019)
